According to patent publication US20240066085A1, “MATRIX METALLOPROTEASE 1 EXPRESSION INHIBITOR, SKIN EXTERNAL AGENT, AND USE FOR INHIBITION OF MATRIX METALLOPROTEASE 1 EXPRESSION” (NATIONAL UNIVERSITY CORPORATION KOBE UNIVERSITY, priority 2020, published 2024):

Columns and labels:
MMP-1 expression = assay: UVA-induced MMP-1 expression in HaCaT after PKCδ inhibitor pretreatment; assay type: cell-based, human; conditions: HaCaT pretreated with PKCδ inhibitor, then UVA irradiation
Method: (§1) The present inventors clarified an expression mechanism of MMP-1 through an experiment. […] The experiment was performed by irradiating HaCaT (epidermal keratinocyte cell line established from a human adult under special ca 2+ concentration and temperature conditions) with ultraviolet rays (UVA).
When UVA irradiation is performed on HaCaT, the MMP-1 expression amount increases in an irradiation-dependent manner. […] Therefore, it was clarified that PKCδ is involved in expression pathway of MMP-1.

[1] = tested on: ERK and MEK phosphorylation; assay: UVA-induced phosphorylation of ERK and MEK in HaCaT after PKCδ inhibitor pretreatment; assay type: cell-based, human; conditions: HaCaT pretreated with PKCδ inhibitor, then UVA irradiation
Method: as §1
However, when a pretreatment of adding rotterlin being a PKCδ inhibitor to HaCaT was performed, and then UVA irradiation was performed on HaCaT, induced expression of phosphorylation of ERK and MEK was suppressed. Therefore, it was clarified that: the activity of PKCδ induces phosphorylation of MEK and ERK downstream of PKC6; and expression of MMP-1 is promoted through c-Jun and the like.

In the case of `CC(=O)c1c(O)c(C)c(O)c(Cc2c(O)c3c(c(C(=O)/C=C/c4ccccc4)c2O)OC(C)(C)C=C3)c1O` [rotterlin], the MMP-1 expression (MMP-1 expression) was “significantly suppressed” and the “induced expression of phosphorylation of ERK and MEK” value [1] was “suppressed”.
